Source: US20100081719A1 (priority 2006, published 2010)
Values joined by “and” are separate entries in the source; they are usually repeats but may differ in a detail not shown here. Equal entries are not always repeated. “Also recorded” adds a separate entry of the source. Structures can show the parent of a compound that is named as a salt.

Legend:
[1] = system: patients who met the 1990 ACR criteria for fibromyalgia syndrome; test: Multi-center double-blind, randomized, placebo-controlled study of milnacipran for the treatment of fibromyalgia (Example 1); format: in vivo, human; settings: for Responders for the treatment of the pain of fibromyalgia (% = m/n): observed cases (OC), intent-to-treat
Procedure: The primary outcome was a composite responder analysis assessing response rate at weeks 14 and 15, and the secondary analysis assessed response rate at weeks 26 and 27.
This was a multi-center, randomized, double-blinded, placebo-controlled three-arm study, which enrolled 888 patients who met the 1990 ACR criteria for fibromyalgia syndrome as well as the more detailed admission criteria outlined in the protocol.
Patients recorded baseline symptoms for the first two weeks after washing off anti-depressants, benzodiazepines, and certain other drugs that could potentially interfere with efficacy measurements.
All randomized medications (placebo and milnacipran) were administered in a split-dose (BID) fashion. The doses were administered in a dose escalation regimen as outlined below:
d. FMS Status Assessments: Patient pain 24 hour and 7 day recall VAS, the SF-36, Multiple Ability Self-report Questionnaire (MASQ, cognitive function), the Multidimensional Health Assessment Questionnaire (MDHAQ) and the Multidimensional Fatigue Inventory (MFI). Diary assessments include current pain (morning, random daily, and evening reports); daily recall pain (morning report); medications taken (evening report); overall pain past week (weekly report), overall fatigue in the last week (weekly report), and the extent that pain kept the patient from caring for themselves (weekly report).
The SF-36 is a multi-purpose, short-form health survey. It yields an 8-scale profile of functional health and well-being scores, psychometrically-based physical and mental health summary measures, and a preference-based health utility index (Ware J E, Snow K K, Kosinski M, Gandek B. SF-36® Health Survey Manual and Interpretation Guide. Boston, Mass.: New England Medical Center, The Health Institute, 1993). […] The SF-36 has proven useful in surveys of general and specific populations, comparing the relative burden of diseases, and in differentiating the health benefits produced by a wide range of different treatments.
The primary endpoint of this study was a composite responder analysis implementing analysis of three domains of interest, evaluated at […]. The domains measured were:
For the primary analysis, the pain domain score was determined by a calculation that compared the average of treatment weeks 14 and 15 to the two baseline weeks, and treatment weeks 26 and 27 vs. baseline for the secondary analysis. The last observation was carried forward if neither the week 14 nor week 15 (or week 26/27) patient self-reported pain score is available to compare to the baseline value.
A responder was defined as a subject who experienced a greater than 30% reduction in pain from baseline and improvement on the PGIC.
See Table 1 for a summary of the results in the Intent-to-Treat Population and Table 2 for a summary of the Last Observation Carried Forward (LOCF), Baseline Observation Carried Forward (BOCF) and study completer (OC) populations. LOCF is an analysis in which observations are carried forward to the last time point for patients who dropped out. The LOCF analysis treats the carried-forward data as observed data at the last time point. BOCF is an analysis that requires the patient remain active in the trial to be evaluated for response. If a patient withdraws from the trial for any reason they are classed as a non-responder irregardless of their pain and global scores at the time of withdrawal.

fibromyalgia patients = settings: cited from earlier work
[2] = both milnacipran treatment groups (BID and QD), up to 200 mg/day

## CCN(CC)C(=O)C1(c2ccccc2)CC1CN (racemic) [milnacipran, Z-2-aminomethyl-1-phenyl-N, N-diethylcyclopropanecarboxamide hydrochloride]
[1]; 100 mg/day vs placebo
  Treatment of fatigue associated with FMS (MFI total score / MFI physical fatigue), comparison with placebo: superior to placebo
[1]; 100 mg/day, treatment week 3
  SF-36 Physical Function: 6.31
[1]; 100 mg/day, treatment week 7
  SF-36 Physical Function: 6.62
[1]; 100 mg/day, treatment week 11
  SF-36 Physical Function: 7.70
[1]; 100 mg/day, treatment week 15
  SF-36 Physical Function: 7.70
[1]; 100 mg/day, treatment week 19
  SF-36 Physical Function: 7.71
[1]; 100 mg/day, treatment week 23
  SF-36 Physical Function: 7.07
[1]; 100 mg/day, treatment week 27
  SF-36 Physical Function: 7.11
[1]; 100 mg/day, treatment weeks 14-15 (3 month), hydrochloride
  Responders for the treatment of the pain of fibromyalgia (% = m/n): 53.33% and 53.3%
[1]; 100 mg/day, treatment weeks 14-15 (3 month), listed as Milnacipran, hydrochloride
  Responders for the treatment of the pain of fibromyalgia (% = m/n): 72 (53.33) %
[1]; 100 mg/day, treatment weeks 26-27 (6 month), hydrochloride
  Responders for the treatment of the pain of fibromyalgia (% = m/n): 49.59% and 49.6%
[1]; 100 mg/day, treatment weeks 26-27 (6 month), listed as Milnacipran, hydrochloride
  Responders for the treatment of the pain of fibromyalgia (% = m/n): 60 (49.59) %
[1]; 100 mg, 3 month
  Individual component responder rate, PGIC (LOCF): 54.0%
  Individual component responder rate, Pain (LOCF): 35.7%
  Pain composite responder rate, Primary Analysis (LOCF): 33.5%
  Pain composite responder rate, Sensitivity Analysis I (BOCF): 32.1%
  Pain composite responder rate, Sensitivity Analysis II: 32.%
  Pain composite responder rate, Sensitivity Analysis III: 32.1%
[1]; 100 mg, 6 month
  Individual component responder rate, PGIC (LOCF): 49.6%
  Individual component responder rate, Pain (LOCF): 35.7%
  Pain composite responder rate, Primary Analysis (LOCF): 30.8%
  Pain composite responder rate, Sensitivity Analysis I (BOCF): 26.8%
  Pain composite responder rate, Sensitivity Analysis II: 27.2%
  Pain composite responder rate, Sensitivity Analysis III: 29.5%
[1]; 100 mg, treatment week 3
  MFI (change from baseline) Physical fatigue (range 4 to 20): −0.99
  MFI (change from baseline) Total score (range 20 to 100): −3.68
[1]; 100 mg, treatment week 7
  MFI (change from baseline) Physical fatigue (range 4 to 20): −1.23
  MFI (change from baseline) Total score (range 20 to 100): −4.32
[1]; 100 mg, treatment week 11
  MFI (change from baseline) Physical fatigue (range 4 to 20): −1.46
  MFI (change from baseline) Total score (range 20 to 100): −5.16
[1]; 100 mg, treatment week 15
  MFI (change from baseline) Physical fatigue (range 4 to 20): −1.29
  MFI (change from baseline) Total score (range 20 to 100): −5.15
[1]; 100 mg, treatment week 19
  MFI (change from baseline) Physical fatigue (range 4 to 20): −1.34
  MFI (change from baseline) Total score (range 20 to 100): −4.97
[1]; 100 mg, treatment week 23
  MFI (change from baseline) Physical fatigue (range 4 to 20): −1.23
  MFI (change from baseline) Total score (range 20 to 100): −4.44
[1]; 100 mg, treatment week 27
  MFI (change from baseline) Physical fatigue (range 4 to 20): −1.37
  MFI (change from baseline) Total score (range 20 to 100): −5.00
[1]; 200 mg/day (high dose) vs 100 mg/day, hydrochloride
  Treatment of fatigue associated with FMS (MFI), comparison of doses: superior to milnacipran 100 mg/day; also recorded: significantly more effective treatment
[1]; 200 mg/day vs placebo
  Treatment of fatigue associated with FMS (MFI total score / MFI physical fatigue), comparison with placebo: superior to placebo
[1]; 200 mg/day, treatment week 3
  SF-36 Physical Function: 7.44
[1]; 200 mg/day, treatment week 7
  SF-36 Physical Function: 8.80
[1]; 200 mg/day, treatment week 11
  SF-36 Physical Function: 8.46
[1]; 200 mg/day, treatment week 15
  SF-36 Physical Function: 8.44
[1]; 200 mg/day, treatment week 19
  SF-36 Physical Function: 8.37
[1]; 200 mg/day, treatment week 23
  SF-36 Physical Function: 7.85
[1]; 200 mg/day, treatment week 27
  SF-36 Physical Function: 7.95
[1]; 200 mg/day, treatment weeks 14-15 (3 month), hydrochloride
  Responders for the treatment of the pain of fibromyalgia (% = m/n): 55.0%
[1]; 200 mg/day, treatment weeks 14-15 (3 month), listed as Milnacipran, hydrochloride
  Responders for the treatment of the pain of fibromyalgia (% = m/n): 143 (55.00) %
[1]; 200 mg/day, treatment weeks 26-27 (6 month), hydrochloride
  Responders for the treatment of the pain of fibromyalgia (% = m/n): 51.74% and 51.7%
[1]; 200 mg/day, treatment weeks 26-27 (6 month), listed as Milnacipran, hydrochloride
  Responders for the treatment of the pain of fibromyalgia (% = m/n): 119 (51.74) %
[1]; 200 mg, 3 month
  Individual component responder rate, PGIC (LOCF): 50.6%
  Individual component responder rate, Pain (LOCF): 38.3%
  Pain composite responder rate, Primary Analysis (LOCF): 34.9%
  Pain composite responder rate, Sensitivity Analysis I (BOCF): 32.4%
  Pain composite responder rate, Sensitivity Analysis II: 32.7%
  Pain composite responder rate, Sensitivity Analysis III: 32.4%
[1]; 200 mg, 6 month
  Individual component responder rate, PGIC (LOCF): 49.9%
  Individual component responder rate, Pain (LOCF): 35.4%
  Pain composite responder rate, Primary Analysis (LOCF): 32.2%
  Pain composite responder rate, Sensitivity Analysis I (BOCF): 27.0%
  Pain composite responder rate, Sensitivity Analysis II: 28.6%
  Pain composite responder rate, Sensitivity Analysis III: 29.9%
[1]; 200 mg, treatment week 3
  MFI (change from baseline) Physical fatigue (range 4 to 20): −1.20
  MFI (change from baseline) Total score (range 20 to 100): −4.58
[1]; 200 mg, treatment week 7
  MFI (change from baseline) Physical fatigue (range 4 to 20): −1.56
  MFI (change from baseline) Total score (range 20 to 100): −5.92
[1]; 200 mg, treatment week 11
  MFI (change from baseline) Physical fatigue (range 4 to 20): −1.54
  MFI (change from baseline) Total score (range 20 to 100): −5.67
[1]; 200 mg, treatment week 15
  MFI (change from baseline) Physical fatigue (range 4 to 20): −1.50
  MFI (change from baseline) Total score (range 20 to 100): −5.62
[1]; 200 mg, treatment week 19
  MFI (change from baseline) Physical fatigue (range 4 to 20): −1.54
  MFI (change from baseline) Total score (range 20 to 100): −5.67
[1]; 200 mg, treatment week 23
  MFI (change from baseline) Physical fatigue (range 4 to 20): −1.44
  MFI (change from baseline) Total score (range 20 to 100): −4.94
[1]; 200 mg, treatment week 27
  MFI (change from baseline) Physical fatigue (range 4 to 20): −1.49
  MFI (change from baseline) Total score (range 20 to 100): −5.80
[1]; continued administration (daily for at least three months)
  Relief from fibromyalgia and its symptoms: long-term (at least three months) relief
[1]; low dose (100 mg/day) vs high dose (200 mg/day), continued administration
  Long-term treatment of fibromyalgia and some of its symptoms, comparison of doses: almost as effective as
Fibromyalgia patients; 100 mg BID
  Therapy for the symptom of pain in FMS: effective acute (short-term) therapy
Fibromyalgia patients; [2]
  PGIC: completers who reported an improvement in their overall status: over 70%
  PGIC: completers who reported worsening: 10%
Fibromyalgia patients; milnacipran-treated patients
  Deaths or serious adverse events associated with treatment: no deaths or serious adverse events
  Patients in whom elevation in hepatic enzymes resulted in adverse events: 2%
Fibromyalgia patients; twice-daily (BID) vs once-daily (QD) dosing
  Effect on fatigue, mood, global wellness, and function, BID vs QD dosing: approximately equally effective
Fibromyalgia patients; twice-daily vs QD dosing
  Treating pain, BID vs QD dosing: more effective in treating pain than QD dosing
